Among the data in patent publication US9023809B2, “Phenylalanine dipeptide derivatives, compositions and use thereof” (The Key Laboratory of Chemistry For Natural Products of …, priority 2008, dated 2015) are melting point and TC50 values, retold here.

One series concerns 2.2.15 cells. Briefly: Cytotoxicity (TC50, median toxic concentration) in 2.2.15 cells. It is filed as cell-based. How it is done:
Cell control wells were simultaneously set up. […] IC50 and SI were calculated, respectively.

Values after ≈ are worked out from the molar mass of the structure shown. *1 amine or outer side, *2 acyl side, *3 side chain or, on linkers, in order; H or OH if unused. Where a SMILES comes first, the peptide text is derived from it. [ ]: non-standard residue; d: D form. The star is where a group is joined. Tyr(3-NO2) = N[C@@H](Cc1ccc(O)c([N+](=O)[O-])c1)C(=O)O; Phe(4-NO2) = N[C@@H](Cc1ccc([N+](=O)[O-])cc1)C(=O)O; Phe(4-NH2) = Nc1ccc(C[C@H](N)C(=O)O)cc1; Suc = O=C(CCC(=O)[*:2])[*:1]; 4Abz = Nc1ccc(C(=O)O)cc1; Propionyl = CCC(=O)*; Bz = O=C(c1ccccc1)*; ClAc = O=C(CCl)*

In general, melting point refers to the temperature of the solid-liquid transition. `COC(=O)[C@H](Cc1ccccc1)NC(=O)[C@H](Cc1ccccc1)NC(=O)c1ccc(O)cc1` returned a melting point of 151 to 153 °C. For the compound `COC(=O)[C@H](Cc1ccccc1)NC(=O)[C@H](Cc1ccc(O)cc1)NC(=O)c1ccc([N+](=O)[O-])cc1`, the melting point is 212 to 214 °C. Regarding `COC(=O)[C@H](Cc1ccccc1)NC(=O)[C@H](Cc1ccc(O)cc1)NC(=O)c1ccc(C)cc1`, the melting point lay in the range of 190 to 192.5 °C.

`O=C(N[C@@H](Cc1ccc(O)cc1)C(=O)N[C@H](CO)Cc1ccccc1)c1cccc([N+](=O)[O-])c1` came in with a melting point of 225.5 to 227 °C. As for `COC(=O)[C@H](Cc1ccccc1)NC(=O)[C@H](Cc1ccccc1)NCc1ccncc1`, the melting point was 174 to 175 °C. For the compound `COC(=O)[C@H](Cc1ccc([N+](=O)[O-])cc1)NC(=O)[C@H](Cc1ccccc1)NCc1ccncc1`, the melting point fell in the range of 224.5 to 225.5 °C. Consider `COC(=O)[C@H](Cc1ccccc1)NC(=O)[C@H](Cc1ccc(O)cc1)NCc1ccncc1`, for which the melting point was in the range of 206.5 to 209 °C.

Regarding `COC(=O)[C@H](Cc1ccc(NC(C)=O)cc1)NC(=O)[C@H](Cc1ccccc1)NC(=O)c1ccc(C)cc1`, the melting point was in the range of 221.5 to 222 °C. Same read-out and setting: to `COC(=O)[C@H](Cc1ccccc1)NC(=O)[C@H](Cc1ccccc1)NC(=O)c1ccc(NC(C)=O)cc1` (Ac-[4Abz]-Phe-Phe-OMe) belongs 208 to 209.5 °C. As to `COC(=O)[C@H](Cc1ccccc1)NC(=O)[C@H](Cc1ccc(O)cc1)NC(=O)c1ccc(NC(C)=O)cc1` (Ac-[4Abz]-Tyr-Phe-OMe), the melting point fell in the range of 225 to 226 °C. In the case of `COC(=O)[C@H](Cc1ccccc1)NC(=O)[C@H](Cc1ccc(O)cc1)NC(=O)c1ccccc1` (Bz-Tyr-Phe-OMe), the melting point lay within 200 to 202 °C.

Compound `COC(=O)[C@H](Cc1ccccc1)NC(=O)[C@H](Cc1ccc(O)c([N+](=O)[O-])c1)NC(=O)c1ccccc1` (Bz-[Tyr(3-NO2)]-Phe-OMe) gave a melting point of 201 to 202.5 °C. Compound `COC(=O)[C@H](Cc1ccccc1)NC(=O)[C@H](Cc1ccccc1)NC(=O)c1ccc(NC(=O)CCl)cc1` ({ClAc-4Abz}-Phe-Phe-OMe) showed a melting point of 222.5 to 224.5 °C. On to `COC(=O)[C@H](Cc1ccccc1)NC(=O)[C@H](Cc1ccccc1)NC(=O)c1ccccc1` [Example 01, methyl N-(N-benzoyl-L-phenylalanyl)-L-phenylalaninate] (Bz-Phe-Phe-OMe), for which, in the series on 2.2.15 cells, the TC50 was 1101.11 µg/mL (≈ 2560 µM).

In the series with 2.2.15 cells, `O=C(N[C@@H](Cc1ccccc1)C(=O)N[C@H](CO)Cc1ccccc1)c1ccccc1` [Example 02, N-(N-benzoyl-L-phenylalanyl)-L-phenylalaninol] displayed a TC50 of 231.12 µg/mL (≈ 574 µM).

`O=C(N[C@@H](Cc1ccc([N+](=O)[O-])cc1)C(=O)N[C@H](CO)Cc1ccccc1)c1ccccc1` [Example 06, N-(N-benzoyl-4-nitro-L-phenylalanyl)-L-phenylalaninol] had a melting point of 196 to 199 °C. Moreover, in the series on 2.2.15 cells, the TC50 came out at 53.42 µg/mL (≈ 119 µM). Take `O=C(N[C@@H](Cc1ccccc1)C(=O)N[C@H](CO)Cc1ccccc1)c1ccccc1Cl` [Example 08, N-(N-2-chloro-benzoyl-L-phenylalanyl)-L-phenylalaninol]: in the series with 2.2.15 cells, the TC50 came to 166.70 µg/mL (≈ 382 µM). In turn, `COC(=O)[C@H](Cc1ccccc1)NC(=O)[C@H](Cc1ccccc1)NC(=O)c1cccc(C)c1` [Example 09, methyl N-(N-3-methyl-benzoyl-L-phenylalanyl)-L-phenylalaninate] yielded a melting point of 190 to 192 °C. This compound had a TC50 in the series on 2.2.15 cells of 240.38 µg/mL (≈ 541 µM). `COC(=O)[C@H](Cc1ccccc1)NC(=O)[C@H](Cc1ccccc1)NC(=O)c1ccccc1Cl` [Example 10, methyl N-(N-2-chloro-benzoyl-L-phenylalanyl)-L-phenylalaninate] registered a melting point of 152.5 to 153.5 °C. In addition, the TC50 with 2.2.15 cells came to 288.68 µg/mL (≈ 621 µM). The corresponding values for `COC(=O)[C@H](Cc1ccc(O)cc1)NC(=O)[C@H](Cc1ccccc1)NC(=O)c1ccccc1Cl` [Example 11, methyl N-(N-2-chloro-benzoyl-L-phenylalanyl)-L-tyrosinate] are 164.5 to 167 °C and 500.00 µg/mL (≈ 1040 µM). With `COC(=O)[C@H](Cc1ccccc1)NC(=O)[C@H](Cc1ccc([N+](=O)[O-])cc1)NC(=O)c1ccccc1` [Example 12, methyl N-(N-benzoyl-4-nitro-L-phenylalanyl)-L-phenylalaninate] (Bz-[Phe(4-NO2)]-Phe-OMe), the melting point was 202 to 204.5 °C. The compound also showed a TC50 in the series on 2.2.15 cells of 388.03 µg/mL (≈ 816 µM). The compound `Cc1ccc(C(=O)N[C@@H](Cc2ccccc2)C(=O)N[C@H](CO)Cc2ccccc2)cc1` [Example 13, N-(N-4-methyl-benzoyl-L-phenylalanyl)-L-phenylalaninol] showed a melting point of 200 to 202 °C. The same compound displayed a TC50 in the series on 2.2.15 cells of 776.06 µg/mL (≈ 1860 µM). Compound `COC(=O)[C@H](Cc1ccc([N+](=O)[O-])cc1)NC(=O)[C@H](Cc1ccc([N+](=O)[O-])cc1)NC(=O)c1ccccc1` [Example 15, methyl N-(N-benzoyl-4-nitro-L-phenylalanyl)-4-nitro-L-phenylalaninate] (Bz-[Phe(4-NO2)]-[Phe(4-NO2)]-OMe) came in with a melting point of 220 to 221.5 °C. Moreover, in the series on 2.2.15 cells, the TC50 stood at 45.69 µg/mL (≈ 87.8 µM). `O=C(N[C@@H](Cc1ccccc1)C(=O)N[C@H](CO)Cc1ccc([N+](=O)[O-])cc1)c1ccccc1` [Example 16, N-(N-benzoyl-L-phenylalanyl)-4-nitro-L-phenylalaninol] showed a melting point of 192 to 195 °C. For the same compound, in the series on 2.2.15 cells, the TC50 came to 52.34 µg/mL (≈ 117 µM). For `COC(=O)[C@H](Cc1ccc(O)cc1)NC(=O)[C@H](Cc1ccccc1)NC(=O)c1ccc(C)cc1` [Example 17, methyl N-(N-^4-methyl-benzoyl-L-phenylalanyl)-L-tyrosinate], the TC50 with 2.2.15 cells was determined as 465.23 µg/mL (≈ 1010 µM). Take `COC(=O)[C@H](Cc1ccc(O)cc1)NC(=O)[C@H](Cc1ccc([N+](=O)[O-])cc1)NC(=O)c1ccc(C)cc1` [Example 18, methyl N-(N-4-methyl-benzoyl-4-nitro-L-phenylalanyl)-L-tyrosinate]: the melting point is 213 to 215 °C. Further, the TC50 in the series on 2.2.15 cells is 45.28 µg/mL (≈ 89.6 µM).

Compound `O=C(N[C@@H](Cc1ccc(O)cc1)C(=O)N[C@H](CO)Cc1ccccc1)c1ccccc1` [Example 21, N-(N-benzoyl-L-tyrosyl)-L-phenylalaninol] showed a melting point of 216 to 217.5 °C. The TC50 with 2.2.15 cells was 28.74 µg/mL (≈ 68.7 µM). In the same order, the values of `Cc1ccc(C(=O)N[C@@H](Cc2ccc(O)cc2)C(=O)N[C@H](CO)Cc2ccccc2)cc1` [Example 26, N-(N-4-methyl-benzoyl-L-tyrosyl)-L-phenylalaninol] are 193 to 195 °C and 472.10 µg/mL (≈ 1090 µM). `COC(=O)[C@H](Cc1ccc(O)cc1)NC(=O)[C@H](Cc1ccccc1)NCc1ccncc1` [Example 46, methyl N-(N-isonicotinyl-L-phenylalanyl)-L-tyrosinate] showed a melting point of 216 to 217 °C.

`CC(=O)Nc1ccc(C[C@H](NC(=O)c2ccccc2C(=O)[O-])C(=O)N[C@H](CO)Cc2ccccc2)cc1.[Na+]` [Example 53, N-[N-(2-carboxyl-benzoyl)-4-acetamido-L-phenylalanyl]-L-phenylalaninol sodium salt]: the TC50 in the series on 2.2.15 cells came to 354.18 µg/mL. In turn, `O=C(O)CCC(=O)OC[C@H](Cc1ccccc1)NC(=O)[C@H](Cc1ccccc1)NC(=O)c1ccccc1` [Example 56, N-(N-benzoyl-L-phenylalanyl)-O-(3-carboxyl-propionyl)-L-phenylalaninol] registered a TC50 with 2.2.15 cells of 333.33 µg/mL (≈ 663 µM). In turn, `CCC(=O)Nc1ccc(C[C@H](NC(=O)c2ccc(Cl)cc2)C(=O)N[C@@H](Cc2ccccc2)C(=O)OC)cc1` [Example 70, methyl N-[N-(4-chloro-benzoyl)-4-propionamido-L-phenylalanyl]-L-phenylalaninate] returned a TC50 in the series on 2.2.15 cells of 17.81 µg/mL (≈ 33.2 µM). In the series on 2.2.15 cells, `CN(C)CC(=O)Nc1ccc(C(=O)N[C@@H](Cc2ccccc2)C(=O)N[C@H](CO)Cc2ccccc2)cc1` [Example 76, N-[N-4-(dimethylaino-acetamido)-benzoyl-L-phenylalanyl]-L-phenylalaninol] returned a TC50 of 37.04 µg/mL (≈ 73.7 µM). In turn, `COC(=O)[C@H](Cc1ccccc1)NC(=O)[C@H](Cc1ccccc1)NC(=O)c1ccc(NC(=O)CN(C)C)cc1` [Example 81, methyl N-[N-4-(dimethylamino-acetamido)-benzoyl-L-phenylalanyl]-L-phenylalaninate] came in with a TC50 with 2.2.15 cells of 58.64 µg/mL (≈ 111 µM). `COC(=O)[C@H](Cc1ccccc1)NC(=O)[C@H](Cc1ccccc1)NC(=O)c1ccc(NC(=O)CN2CCCC2)cc1` [Example 82, methyl N-{N-[4-(1-pyrrolidyl)acetamido-benzoyl]-L-phenylalanyl}-L-phenylalaninate] came in with a TC50 in the series on 2.2.15 cells of 59.19 µg/mL (≈ 106 µM).

The compound `O=C([O-])CCC(=O)Nc1ccc(C(=O)N[C@@H](Cc2ccccc2)C(=O)N[C@@H](Cc2ccccc2)C(=O)[O-])cc1.[Na+].[Na+]` [Example 92, N-[N-4-(3-carboxyl-propionamido)-benzoyl-L-phenylalanyl]-L-phenylalanine sodium salt] ({Suc-4Abz}-Phe-Phe-OH) showed a TC50 in the series on 2.2.15 cells of 379.36 µg/mL. For `O=C(N[C@@H](Cc1ccc(O)cc1)C(=O)N[C@@H](Cc1ccccc1)C(=O)O)c1ccccc1` [Example 93, N-(N-benzoyl-L-tyrosyl)-L-phenylalanine] (Bz-Tyr-Phe-OH), the TC50 in the series on 2.2.15 cells was 577.35 µg/mL (≈ 1330 µM). Consider `CCC(=O)Nc1ccc(C[C@H](NC(=O)[C@H](Cc2ccccc2)NC(=O)c2ccccc2)C(=O)O)cc1` [Example 94, N-(N-benzoyl-L-phenylalanyl)-4-propionamido-L-phenylalanine] (Bz-Phe-[Phe(4-NH2)](Propionyl)-OH), for which the TC50 in the series on 2.2.15 cells was found to be 561.21 µg/mL (≈ 1150 µM).

Compound `CC(=O)Nc1ccc(C[C@H](NC(=O)[C@H](Cc2ccc(O)cc2)NC(=O)c2ccccc2)C(=O)[O-])cc1.[Na+]` [Example 95, N-(N-benzoyl-L-tyrosyl)-4-acetamido-L-phenylalanine sodium salt] (Bz-Tyr-[Phe(4-NH2)](Ac)-OH) yielded a TC50 in the series with 2.2.15 cells of 79.46 µg/mL. In the series on 2.2.15 cells, `CC(=O)Nc1ccc(C[C@H](NC(=O)[C@H](Cc2ccc(O)cc2)NC(=O)c2ccc(C)cc2)C(=O)O)cc1` [Example 96, N-(N-4-methyl-benzoyl-L-tyrosyl)-4-acetamido-L-phenylalanine] returned a TC50 of 199.67 µg/mL (≈ 397 µM).
